Literature values as cited in patent US12599131B2, “Disinfectant composition” (KAO CORPORATION, priority 2020, dated 2026).

settings: 0.1 mol/L in water, Handbook of Chemistry or Chemicalize

SMILES | pKa (25° C.)
O=C(O)CCCCC(=O)O [adipic acid] | 4.3
CCCCCC(=O)O [caproic acid] | 4.6
O=CO [formic acid] | 3.54
CCCCCCCCCC(=O)O [capric acid] | 4.95
CCCCCCCCC(CCCCCC)C(=O)O (stereo not drawn) [2-hexyldecanoic acid] | 5.12
CCCCCCCCC(CCCCCCCC)C(=O)O [2-octyldecanoic acid] | 4.98
